Reference: patent US8178553B2, “Compounds for the treatment of inflammatory disorders” (Schering Corporation, priority 2006, dated 2012)
Read-outs that look alike come from different tables or passages of the source.

Molecular target: T1, purified catalytic domain of recombinant human TACE (rhTACEc) (Homo sapiens, UniProt P78536, N452Q/S266A)
T1 construct: rhTACEc, Residue 215 to 477 with two mutation (S266A and N452Q) and a 6xHis tail; 6xHis (C); made in house; host or cells: baculovirus/Hi5 insect cells
T1 sequence (P78536 215-477 S266A/N452Q): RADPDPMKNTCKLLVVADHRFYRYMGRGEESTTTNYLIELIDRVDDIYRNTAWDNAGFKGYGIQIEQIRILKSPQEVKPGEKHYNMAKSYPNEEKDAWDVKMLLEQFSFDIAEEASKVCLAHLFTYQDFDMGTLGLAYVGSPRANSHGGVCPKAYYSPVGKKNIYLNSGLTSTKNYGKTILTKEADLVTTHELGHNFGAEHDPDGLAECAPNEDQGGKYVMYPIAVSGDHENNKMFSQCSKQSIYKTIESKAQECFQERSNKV
Assay: TACE kinetic assay, cleavage of internally quenched fluorescent peptide substrate SPDL-3
Type: biochemical
Procedure: TACE activity is determined by a kinetic assay measuring the rate of increase in fluorescent intensity generated by TACE catalyzed cleavage of an internally quenched peptide substrate (SPDL-3). […] It is purified from the baculovirus/Hi5 cells expression system using affinity chromatography. […] MCA is (7-Methoxycoumarin-4-yl)acetyl. Dpa is N-3-(2,4-Dinitrophenyl)-L-2,3-diaminopropionyl.
A 50 μl assay mixture contains 20 mM HEPES, pH 7.3, 5 mM CaCl2, 100 µM ZnCl2, 2% DMSO, 0.04% Methylcellulose, 30 μM SPDL-3, 70 pM rhTACEc and a test compound. RhTACEc is pre-incubated with the testing compound for 90 min. at 25° C. Reaction is started by addition of the substrate. […] Rate of enzymatic reaction is shown as Units per second. Effect of a test compound is shown as % of TACE activity in the absence of the compound.

[1] = TACE inhibition, Table 1, read-out: Ki Rating
[2] = Specific TACE inhibitory activity of representative compounds, read-out: Ki

Row | Compound | Ki [1] [nM] | Ki [2] [nM] | Ki [nM]
1 | COc1ccc2c(c1)C(=O)N(CC1(CC(=O)N3CCCCC3)NC(=O)NC1=O)C2 (stereo not shown) [Compound 9] | < 10 | – | –
2 | COc1ccc2c(c1)C(=O)N(C[C@@]1(c3cc4cc(C#N)cnc4o3)NC(=O)NC1=O)C2 [Compound 38] | < 10 | – | –
3 | NC(=O)Cc1ccc2c(c1)CN(CC1(c3ccc(F)cc3)NC(=O)NC1=O)C2=O (stereo not shown) [Compound 37] | 10 to 100 | – | –
4 | O=C1NC(=O)C(CN2Cc3ccsc3C2=O)(c2ccc(F)cc2)N1 (stereo not shown) [Compound 26] | 10 to 100 | – | –
5 | COc1ccc2c(c1)C(=O)N(CC1(CC(=O)N[C@@H](C)c3ccccc3)NC(=O)NC1=O)C2 (stereo partly shown) [Compound 4] | 10 to 100 | – | –
6 | COc1ccc2c(c1)C(=O)N(C[C@@]1(c3ccc(OC(=O)N(C)C)cc3)NC(=O)NC1=O)C2 [Compound 93] | – | – | < 10
7 | COc1ccc2c(c1)C(=O)N(CC1(CC(=O)O)NC(=O)NC1=O)C2 (stereo not shown) [Compound 2] | 100 to 1000 | – | –
8 | COc1ccc2c(c1)C(=O)N(CC1(CC(=O)N3Cc4ccccc4C3)NC(=O)NC1=O)C2 (stereo not shown) [Compound 17] | 10 to 100 | – | –
9 | COc1ccc2c(c1)C(=O)N(CC1(c3ccc(S(C)(=O)=O)cc3)NC(=O)NC1=O)C2 (stereo not shown) [Compound 33] | < 10 | – | –
10 | COc1ccc2c(c1)CN(CC1(c3ccc(C#CCO)cc3)NC(=O)NC1=O)C2=O (stereo not shown) [Compound 20] | < 10 | – | –
11 | CCOC(=O)CC1(CN2Cc3ccc(OC)cc3C2=O)NC(=O)NC1=O (stereo not shown) [Compound 1] | 10 to 100 | – | –
12 | COC(=O)c1ccc([C@]2(CN3Cc4ccc(OC)cc4C3=O)NC(=O)NC2=O)cc1 [Compound 41] | < 10 | – | –
13 | O=C(O)Cc1ccc2c(c1)CN(CC1(c3ccc(F)cc3)NC(=O)NC1=O)C2=O (stereo not shown) [Compound 36] | 100 to 1000 | – | –
14 | COc1ccc2c(c1)CN(CC1(c3ccc(C#CCN(C)C)cc3)NC(=O)NC1=O)C2=O (stereo not shown) [Compound 18] | < 10 | – | –
15 | COc1ccc2c(c1)C(=O)N(CC1(CC(=O)N3CCC(C#N)(c4ccccc4)CC3)NC(=O)NC1=O)C2 (stereo not shown) [Compound 16] | 10 to 100 | – | –
16 | COc1ccc2c(c1)C(=O)N(CC1(CC(=O)Nc3nc4ccccc4s3)NC(=O)NC1=O)C2 (stereo not shown) [Compound 10] | < 10 | – | –
17 | COc1ccc2c(c1)C(=O)N(CC1(CC(=O)NC3CCCCC3)NC(=O)NC1=O)C2 (stereo not shown) [Compound 6] | 10 to 100 | – | –
18 | CN(C)CC#Cc1ccc([C@]2(CN3Cc4ccc(O)cc4C3=O)NC(=O)NC2=O)cc1 [Compound 19] | 10 to 100 | – | –
19 | O=C1NC(=O)C(CN2Cc3ncccc3C2=O)(c2ccc(F)cc2)N1 (stereo not shown) [Compound 27] | > 1000 | – | –
20 | COc1ccc2c(c1)C(=O)N(CC1(CC(=O)N3CCOCC3)NC(=O)NC1=O)C2 (stereo not shown) [Compound 3] | 10 to 100 | – | –
21 | COc1ccc2c(c1)C(=O)N(CC1(CC(=O)NCC3CCCO3)NC(=O)NC1=O)C2 (stereo not shown) [Compound 12] | 10 to 100 | – | –
22 | O=C1NC(=O)C(CN2Cc3c[nH]c(=O)cc3C2=O)(c2ccc(F)cc2)N1 (stereo not shown) [Compound 29] | 10 to 100 | – | –
23 | COc1ccc2c(c1)C(=O)N(CC1(CC(=O)N3CCC(Cc4ccccc4)CC3)NC(=O)NC1=O)C2 (stereo not shown) [Compound 14] | < 10 | – | –
24 | COc1ccc2c(c1)C(=O)N(CC1(c3ccc(C(=O)N(C)C)cc3)NC(=O)NC1=O)C2 (stereo not shown) [Compound 34] | 10 to 100 | – | –
25 | COC(=O)c1ccc(C2(CN3Cc4ccc(OC)cc4C3=O)NC(=O)NC2=O)cc1 (stereo not shown) [Compound 30] | < 10 | – | –
26 | COC(=O)c1ccc([C@@]2(CN3Cc4ccc(OC)cc4C3=O)NC(=O)NC2=O)cc1 [Compound 40] | 10 to 100 | – | –
27 | N#Cc1ccc2c(c1)CN(CC1(c3ccc(F)cc3)NC(=O)NC1=O)C2=O (stereo not shown) [Compound 35] | 10 to 100 | – | –

The next lines start with results.

Row | Ki [1] [nM] | Ki [2] [nM] | Compound | Ki [nM]
28 | < 10 | – | COc1ccc2c(c1)C(=O)N(C[C@@]1(c3cc4cc(S(C)(=O)=O)ccc4o3)NC(=O)NC1=O)C2 [Compound 44] | –
29 | < 10 | – | COc1ccc2c(c1)C(=O)N(C[C@@]1(c3ccc(-c4cnc(C(=O)NCC(F)(F)F)cn4)cc3)NC(=O)NC1=O)C2 [Compound 72] | –
30 | < 10 | – | COc1ccc2c(c1)C(=O)N(C[C@@]1(c3ccc(-c4cc(C(N)=O)ccn4)cc3)NC(=O)NC1=O)C2 [Compound 59] | –
31 | < 10 | – | COC(=O)c1cccnc1-c1ccc([C@]2(CN3Cc4ccc(OC)cc4C3=O)NC(=O)NC2=O)cc1 [Compound 57] | –
32 | < 10 | – | COc1ccc2c(c1)C(=O)N(C[C@@]1(c3ccc(C#Cc4cccnc4)cc3)NC(=O)NC1=O)C2 [Compound 94] | –
33 | < 10 | – | COc1ccc2c(c1)C(=O)N(C[C@@]1(c3ccc(Oc4ccc(C(=O)NCCN(C)C)cc4)cc3)NC(=O)NC1=O)C2 [Compound 83] | –
34 | < 10 | – | CCOC(=O)c1n[nH]c2ccc(-c3ccc([C@]4(CN5Cc6ccc(OC)cc6C5=O)NC(=O)NC4=O)cc3)cc12 [Compound 77] | –
35 | < 10 | – | COc1ccc2c(c1)C(=O)N(C[C@@]1(c3ccc(Oc4cccc(C(=O)NCCN(C)C)c4)cc3)NC(=O)NC1=O)C2 [Compound 90] | –
36 | < 10 | – | COC(=O)c1ccnc(-c2ccc([C@]3(CN4Cc5ccc(OC)cc5C4=O)NC(=O)NC3=O)cc2)c1 [Compound 74] | –
37 | < 10 | – | COC(=O)c1cc(C)nc(-c2ccc([C@]3(CN4Cc5ccc(OC)cc5C4=O)NC(=O)NC3=O)cc2)c1 [Compound 53] | –
38 | 100 to 1000 | – | COc1ccc2c(c1)C(=O)N(C[C@]1(c3ccc(S(C)(=O)=O)cc3)NC(=O)NC1=O)C2 [Compound 42] | –
39 | < 10 | 1.04 | COc1ccc2c(c1)C(=O)N(C[C@@]1(c3cc4nc(S(C)(=O)=O)ccc4o3)NC(=O)NC1=O)C2 [Compound 50] | –
40 | < 10 | – | COC(=O)c1cnc(-c2ccc([C@]3(CN4Cc5ccc(OC)cc5C4=O)NC(=O)NC3=O)cc2)cn1 [Compound 54] | –
41 | < 10 | – | COC(=O)c1ccnc(-c2ccc(C3(CN4Cc5ccc(OC)cc5C4=O)NC(=O)NC3=O)cc2)c1 (stereo not shown) [Compound 55] | –
42 | < 10 | – | CC#CCOc1ccc([C@]2(CN3Cc4ccc(OC)cc4C3=O)NC(=O)NC2=O)cc1 [Compound 91] | –
43 | < 10 | – | COc1ccc2c(c1)C(=O)N(C[C@@]1(c3ccc(-c4cc(C(=O)NC5CC5)ccn4)cc3)NC(=O)NC1=O)C2 [Compound 60] | –
44 | < 10 | – | COc1ccc2c(c1)C(=O)N(C[C@@]1(c3ccc(-c4ccc5[nH]nc(C(N)=O)c5c4)cc3)NC(=O)NC1=O)C2 [Compound 78] | –
45 | < 10 | 0.71 | COc1ccc2c(c1)C(=O)N(C[C@@]1(c3cc4cc(C(N)=O)cnc4o3)NC(=O)NC1=O)C2 [Compound 98] | –
46 | < 10 | – | COc1ccc2c(c1)C(=O)N(C[C@@]1(c3ccc(C#N)cc3)NC(=O)NC1=O)C2 [Compound 101] | –
47 | < 10 | 0.15 | COc1ccc2c(c1)C(=O)N(C[C@@]1(c3ccc(-c4cc(C(=O)NC5CC5)cc(C)n4)cc3)NC(=O)NC1=O)C2 [Compound 64] | –

Row | Ki [1] [nM] | Ki [2] [nM] | Compound | Ki [nM]
48 | < 10 | 0.66 | COc1ccc2c(c1)C(=O)N(C[C@@]1(c3ccc(-c4cccc(C(N)=O)n4)cc3)NC(=O)NC1=O)C2 [Compound 76] | –
49 | < 10 | – | COc1ccc2c(c1)C(=O)N(C[C@@]1(c3ccc(C(N)=O)cc3)NC(=O)NC1=O)C2 [Compound 103] | –
50 | < 10 | – | CNC(=O)c1cccnc1-c1ccc([C@]2(CN3Cc4ccc(OC)cc4C3=O)NC(=O)NC2=O)cc1 [Compound 61] | –
51 | < 10 | – | COc1ccc2c(c1)C(=O)N(C[C@@]1(c3ccc(-c4cccnc4C#N)cc3)NC(=O)NC1=O)C2 [Compound 104] | –
52 | 10 to 100 | – | COc1ccc2c(c1)C(=O)N(C[C@@]1(CCc3ccc(F)c(C(N)=O)c3)NC(=O)NC1=O)C2 [Compound 47] | –
53 | 10 to 100 | – | COc1ccc2c(c1)C(=O)N(C[C@@]1(/C(Cc3c[nH]c(=O)c(C)c3)=N/O)NC(=O)NC1=O)C2 [Compound 48] | –
54 | < 10 | – | COc1ccc2c(c1)C(=O)N(C[C@@]1(c3ccc(OCC#CCO)cc3)NC(=O)NC1=O)C2 [Compound 92] | –
55 | < 10 | – | COc1ccc2c(c1)C(=O)N(C[C@@]1(c3ccc(-c4cc(C#N)ccn4)cc3)NC(=O)NC1=O)C2 [Compound 73] | –
56 | < 10 | – | COc1ccc2c(c1)C(=O)N(C[C@@]1(c3ccc(-c4cccc(C#N)c4)cc3)NC(=O)NC1=O)C2 [Compound 81] | –
57 | < 10 | – | CNC(=O)c1cccc(Oc2ccc([C@]3(CN4Cc5ccc(OC)cc5C4=O)NC(=O)NC3=O)cc2)c1 [Compound 89] | –
58 | < 10 | – | COc1ccc2c(c1)C(=O)N(C[C@@]1(c3cc4ncccc4n3C(=O)OC(C)(C)C)NC(=O)NC1=O)C2 [Compound 46] | –
59 | 10 to 100 | – | COC(=O)c1ncccc1C(=O)C[C@]1(CN2Cc3ccc(OC)cc3C2=O)NC(=O)NC1=O [Compound 45] | –
60 | < 10 | 0.09 | COc1ccc2c(c1)C(=O)N(C[C@@]1(c3ccc(-c4ncccc4C#N)cc3)NC(=O)NC1=O)C2 [Compound 66] | –
61 | < 10 | – | COc1ccc2c(c1)C(=O)N(C[C@@]1(c3ccc(-c4cnc(N)c(C(=O)NC5CC5)c4)cc3)NC(=O)NC1=O)C2 [Compound 65] | –
62 | < 10 | – | COc1ccc2c(c1)C(=O)N(C[C@@]1(c3ccc(Oc4cccc(C(=O)N5CCOCC5)c4)cc3)NC(=O)NC1=O)C2 [Compound 87] | –
63 | < 10 | 0.26 | COc1ccc2c(c1)C(=O)N(C[C@@]1(c3ccc(S(C)(=O)=O)cc3)NC(=O)NC1=O)C2 [Compound 43] | –
64 | < 10 | – | COc1ccc2c(c1)C(=O)N(C[C@@]1(c3cc4nc(SC)ccc4o3)NC(=O)NC1=O)C2 [Compound 49] | –
65 | < 10 | – | CCNC(=O)c1cnc(-c2ccc([C@]3(CN4Cc5ccc(OC)cc5C4=O)NC(=O)NC3=O)cc2)cn1 [Compound 70] | –
66 | < 10 | 0.39 | COc1ccc2c(c1)C(=O)N(C[C@@]1(c3cc4cc(/C=N/O)ccc4o3)NC(=O)NC1=O)C2 [Compound 97] | –
